Laboratory results published in PMC12530851, “Design, synthesis, and apoptotic antiproliferative activity of novel dihydropyrimidine-5-carbonitrile/1,2,4-oxadiazole hybrids as dual EGFR/VEGFR-2 inhibitors endowed with antioxidant activity” (RSC Advances, 2025).
“And” between values parts separate entries of the source, which are not always exact repeats. Identical values can stand only once.

Tests used:
caspase-8 = test: Caspase-8 activation assay in MCF-7 cells; type: cell-based, human; conditions: for Caspase-8 Fold change: vs untreated control
Method: Compounds10k and 10l were tested as caspases-3, 8, 9, Bax and p53 activators and as down-regulators of the anti-apoptotic protein Bcl2 against the MCF-7 breast cancer cell line.[41] Appendix A gives more details.
To elucidate the apoptotic processes of compounds 10k and 10l, whether via the intrinsic or extrinsic pathway, their impacts on caspase-8 and caspase-9 were evaluated. […] This signifies the activation of both intrinsic and extrinsic pathways (Table 5).
4.2.6. Caspase-8/9 activation assay
Cells were obtained from American Type Culture Collection, cells were grown in RPMI 1640 containing 10% fetal bovine serum at 37°C, stimulated with the compounds to be tested for caspase 8/9, and lysed with Cell Extraction Buffer. This lysate was diluted in Standard Diluent Buffer over the range of the assay and measured for human active caspase-8/9 content. (Cells are Plated in a density of 1.2 – 1.8 × 10,000 cells/well in a volume of 100µl complete growth medium + 100 ul of the tested compound per well in a 96-well plate for 24 hours before the enzyme assay). The absorbance of each microwell was read on a spectro-photometer at 450 nm. […]

caspase-3 = test: Caspase-3 activation assay in MCF-7 cells; type: cell-based, human; conditions: for Caspase-3 Fold change: vs untreated control
VEGFR-2 = VEGFR-2 (Homo sapiens, UniProt P35968); test: VEGFR-2 inhibitory assay
Method: The majority of signals detected by antiphosphotyrosine antibody were from EGFR because the enzyme preparation contained low impurities.
Prepare all the solutions using autoclaved, deionized water and analytical grade reagents. Prepare
and store all the reagents at room temperature (unless indicated otherwise). EDTA solution (0.5
M, pH 8.0): add 95 mL ultra-pure water to 14.612 g EDTA, adjust the pH to 8.0 using NaOH
solution, add 5 mL ultra-pure water; 1×Kinase Assay Buffer: add 25 mL HEPES solution (1 M),
water, adjust pH to 7.5 and constant volume to 500 mL using ultrapure water; 4×Stop solution (40
mM): Mix 0.8 mL of the foregoing EDTA solution, 1 mL 10×Detection Buffer and 8.2 mL ultra-
pure water; 1×Detection Buffer: Mix 1 mL 10×Detection Buffer with 9 mL water; 4×VEGFR
μM) was added to 624 μL 1×Kinase Assay Buffer and mixed; 4×ULight™-labeled JAK1
concentration 5 μM) was added to 576 μL 1×Kinase Assay Buffer and mixed; 4×ATP Solution
2×substrate/ATP Mix: 560 μL foregoing 4×ULight™-labeled JAK1 and 560 μL 4×ATP solution
and mixed (prepared before use). The assays used an ULight-labeled peptide substrate and a
Europium-W1024-labeled antiphosphotyrosine antibody. The VEGFR-2 was purchased from
Carna Biosciences, Inc. (New York, USA). The 384-well plates were obtained from PerkinElmer.
Compounds were dissolved in DMSO and diluted to 11 concentrations at a tripling rate from 2.500
5 μL 2×VEGFR-2 kinase solution (0.5 nM)
was added to 384-well plates homogeneous mixing and pre-reaction at room temperature for 30
min. Next, 2.5 μL 4×Ultra ULightTM-JAK-1(Tyr1023) Peptide (200 nM)/ATP (40 μM) was
added to the corresponding wells of a 384-well plate. Negative control: 2.5 μL/well 4×substrate/ATP mixture and 7.5 μL 1×kinase assay buffer in 384-well plate well. Positive control:
μL/well 2×VEGFR-2 kinase solution was added to the 384-well plate, The final concentration of DMSO in the mixing system was 4%. After incubation at room temperature and dark for 60 min, 5 μL 4×stop solution was added to corresponding wells to react for 5 min and then 5 μL 4×detection mix was added to the corresponding wells of a 384-well plate. The mixture was centrifugally mixed and stayed for 60 min at room temperature for color development. The plate
was read using an Envision plate reader. The inhibition rate (%) = (positive well reading-
compound well reading)/(positive well reading-negative well reading)×100. The corresponding IC50 values were calculated using GraphPad Prism 5.0.

[1] = Cell viability assay (MTT) on normal MCF-10A cells; type: cell-based; conditions: human, MCF-10A mammary gland epithelial cells (normal cell line), MCF-10A normal cells, four-day incubation
Method: The impact of novel compounds 10a–l on the viability of a normal human cell line, specifically human mammary gland epithelial cells (MCF-10A), was assessed to ascertain the safety of the newly synthesized compounds. The MTT test was employed to assess the cell viability of the novel compounds after a four-day incubation with MCF-10A cells.[29,37] Refer to Appendix A for more experimental details.
The effect of new compounds 10a–l on the viability of a normal human cell line, namely human mammary gland epithelial cells (MCF-10A), was evaluated to determine the safety of the newly synthesized compounds.
4.2. Biological evaluation
4.2.1 Cell Viability assay (MTT assay)
MTT assay was performed to investigate the effect of the synthesized compounds on mammary epithelial cells (MCF-10A). The cells were propagated in medium consisting of Ham's F-12 medium/ Dulbecco's modified Eagle's medium (DMEM) (1:1) supplemented with 10% foetal calf serum, 2 mM glutamine, insulin (10 μg/mL), hydrocortisone (500 ng/mL) and epidermal growth factor (20 ng/mL). Trypsin ethylenediamine tetra acetic acid (EDTA) was used to passage the cells after every 2-3 days. 96-well flat-bottomed cell culture plates were used to seed the cells at a density of 10^4 cells mL-1. The medium was aspirated from all the wells of culture plates after 24 h followed by the addition of synthesized compounds (in 200 μL medium to yield a final concentration of 0.1% (v/v) dimethyl sulfoxide) into individual wells of the plates. Four wells were designated to a single compound. The plates were allowed to incubate at 37°C for 96 h. Afterwards, the medium was aspirated and 3-[4,5-dimethylthiazol-2-yl]-2,5-diphenyltetrazolium bromide (MTT) (0.4 mg/mL) in medium was added to each well and subsequently incubated for 3 h. The medium was aspirated and 150 μL dimethyl sulfoxide (DMSO) was added to each well. The plates were vortexed followed by the measurement of absorbance at 540 nm on a microplate reader. […]

EGFR = EGFR (Homo sapiens, UniProt P00533); test: EGFR inhibitory assay (EGFR-TK test); conditions: for EGFR inhibitory potency relative to erlotinib: more potent than erlotinib
Method: Baculoviral expression vectors including pBlueBacHis2B and pFASTBacHTc were used
5ʹ upstream to the EGFR sequence comprised a sequence that encoded (His)6. Sf-9 cells were infected for 72h for protein expression. The pellets of Sf-9 cells were solubilized in a buffer containing sodium vanadate (100 μM), aprotinin (10 μg/mL), triton (1%), HEPES
buffer(50mM), ammonium molybdate (10 μM), benzamidine HCl (16 μg/mL), NaCl (10 mM),leupeptin (10 μg/mL) and pepstatin (10 μg/mL) at 0°C for 20 min at pH 7.4, followed by centrifugation for 20 min. To eliminate the nonspecifically bound material, a Ni-NTA super flow packed column was used to pass through and wash the crude extract supernatant first with 10mM and then with 100 mM imidazole. Histidine-linked proteins were first eluted with 250 and then with 500 mM imidazole subsequent to dialysis against NaCl (50 mM), HEPES (20 mM), glycerol (10%) and 1 μg/mL each of aprotinin, leupeptin and pepstatin for 120 min. The purification was performed either at 4 °C or on ice. To record autophosphorylation level, EGFR kinase assay was carried out on the basis of DELFIA/Time-Resolved Fluorometry. The compounds were first
dissolved in DMSO absolute, subsequent to dilution to appropriate concentration using HEPES
(25 mM) at pH 7.4. Each compound (10 μL) was incubated with recombinant enzyme (10 μL, 5
ng for EGFR, 1:80 dilution in 100 mM HEPES) for 10 min at 25 °C, subsequent to the addition of
5X buffer (10 μL, containing 2 mM MnCl2, 100 μM Na3VO4, 20 mM HEPES and 1 mM DTT)
and ATP-MgCl2 (20 μL, containing 0.1 mM ATP and 50 mM MgCl2) and incubation for 1h. The
negative and positive controls were included in each plate by the incubation of enzyme either with
or without ATP-MgCl2. The liquid was removed after incubation and the plates were washed
thrice using a wash buffer. The Europium-tagged antiphosphotyrosine antibody (75 μL, 400 ng)
was added to each well followed by incubation of 1h and then washing of the plates using buffer.
The enhancement solution was added to each well and the signal was recorded at excitation and
The autophosphorylation percentage inhibition by compounds was calculated using the following equation:
calculated. The majority of signals detected by antiphosphotyrosine antibody were from EGFR because the enzyme preparation contained low impurities.

[2] = system: normal human diploid cell line (WI-38); test: Cytotoxicity against normal cell line (MTT); type: cell-based; conditions: for Selectivity index (SI), A-549: WI-38 vs A-549; for Selectivity index (SI), HT-29: WI-38 vs HT-29; for Selectivity index (SI), MCF-7: WI-38 vs MCF-7; for Selectivity index (SI), Panc-1: WI-38 vs Panc-1
[3] = Cytotoxicity against normal cell line (MTT); type: cell-based, human; conditions: WI-38 normal human diploid cells; normal human diploid WI-38 cells, MTT

Sequence of EGFR (P00533 669-1210): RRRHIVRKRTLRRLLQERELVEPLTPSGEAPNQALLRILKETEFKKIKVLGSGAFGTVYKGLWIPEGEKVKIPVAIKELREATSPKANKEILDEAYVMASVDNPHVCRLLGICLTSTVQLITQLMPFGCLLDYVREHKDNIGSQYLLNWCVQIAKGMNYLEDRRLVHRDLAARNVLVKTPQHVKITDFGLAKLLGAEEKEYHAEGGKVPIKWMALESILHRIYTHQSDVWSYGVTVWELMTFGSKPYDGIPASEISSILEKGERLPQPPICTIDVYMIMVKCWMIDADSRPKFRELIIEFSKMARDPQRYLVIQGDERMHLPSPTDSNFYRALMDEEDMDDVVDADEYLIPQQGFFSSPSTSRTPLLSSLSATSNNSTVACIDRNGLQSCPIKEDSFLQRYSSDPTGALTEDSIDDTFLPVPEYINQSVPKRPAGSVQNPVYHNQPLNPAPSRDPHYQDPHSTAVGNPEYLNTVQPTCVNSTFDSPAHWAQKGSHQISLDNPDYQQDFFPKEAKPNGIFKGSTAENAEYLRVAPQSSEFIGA
Sequence of VEGFR-2 (P35968 20-1356): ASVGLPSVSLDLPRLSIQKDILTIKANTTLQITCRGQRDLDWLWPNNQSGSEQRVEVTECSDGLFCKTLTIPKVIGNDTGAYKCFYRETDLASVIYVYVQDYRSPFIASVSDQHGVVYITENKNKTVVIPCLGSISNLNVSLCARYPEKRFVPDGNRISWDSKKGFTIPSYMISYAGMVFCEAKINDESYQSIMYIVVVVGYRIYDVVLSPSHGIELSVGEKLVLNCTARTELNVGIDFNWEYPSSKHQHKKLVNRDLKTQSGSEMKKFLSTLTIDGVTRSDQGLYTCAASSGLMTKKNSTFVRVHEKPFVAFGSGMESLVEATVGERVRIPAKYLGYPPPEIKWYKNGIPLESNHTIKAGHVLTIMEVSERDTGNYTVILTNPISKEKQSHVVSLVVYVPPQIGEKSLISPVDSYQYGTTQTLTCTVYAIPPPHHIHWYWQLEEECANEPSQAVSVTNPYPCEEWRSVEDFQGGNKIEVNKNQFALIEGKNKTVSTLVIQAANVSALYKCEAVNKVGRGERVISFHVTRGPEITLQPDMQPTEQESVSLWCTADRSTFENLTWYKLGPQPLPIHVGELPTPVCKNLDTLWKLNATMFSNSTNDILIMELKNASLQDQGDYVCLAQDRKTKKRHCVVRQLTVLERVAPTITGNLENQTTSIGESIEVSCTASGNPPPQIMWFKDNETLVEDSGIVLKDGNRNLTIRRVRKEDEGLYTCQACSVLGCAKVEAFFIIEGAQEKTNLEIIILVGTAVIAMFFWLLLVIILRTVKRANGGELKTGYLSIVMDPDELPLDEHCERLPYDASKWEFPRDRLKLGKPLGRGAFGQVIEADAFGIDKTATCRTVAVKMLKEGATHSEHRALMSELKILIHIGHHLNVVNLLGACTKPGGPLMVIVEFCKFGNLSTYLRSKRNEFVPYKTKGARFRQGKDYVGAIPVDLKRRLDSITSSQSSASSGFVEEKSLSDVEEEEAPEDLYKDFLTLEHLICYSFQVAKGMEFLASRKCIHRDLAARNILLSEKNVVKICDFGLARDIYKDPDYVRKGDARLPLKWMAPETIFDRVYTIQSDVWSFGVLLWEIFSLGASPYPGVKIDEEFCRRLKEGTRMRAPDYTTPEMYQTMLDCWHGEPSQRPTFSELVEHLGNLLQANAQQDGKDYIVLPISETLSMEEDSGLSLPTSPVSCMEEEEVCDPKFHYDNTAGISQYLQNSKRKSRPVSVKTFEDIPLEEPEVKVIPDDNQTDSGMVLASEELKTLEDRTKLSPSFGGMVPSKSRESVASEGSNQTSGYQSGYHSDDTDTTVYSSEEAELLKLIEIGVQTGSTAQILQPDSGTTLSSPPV

| SMILES | Caspase-8 Conc (caspase-8) [ng/mL] | Caspase-8 Fold change (caspase-8) | Caspase-3 Conc (caspase-3) [pg/mL] | Caspase-3 Fold change (caspase-3) | IC50 (VEGFR-2) [nM] | viability at 96 h, 50 µM [1] [%] | IC50 (EGFR) [nM] | EGFR inhibitory potency relative to erlotinib (EGFR) [fold] | Selectivity index (SI), A-549 [2] | Selectivity index (SI), HT-29 [2] | Selectivity index (SI), MCF-7 [2] | Selectivity index (SI), Panc-1 [2] | IC50 [3] [nM] |
| --- | --- | --- | --- | --- | --- | --- | --- | --- | --- | --- | --- | --- | --- |
| COc1ccc(-c2nc(SCc3nc(-c4ccc(Cl)cc4)no3)[nH]c(=O)c2C#N)cc1 [Compound 10k, 2-(((3-(4-Chlorophenyl)-1,2,4-oxadiazol-5-yl)methyl)thio)-4-(4-methoxyphenyl)-6-oxo-1,6-dihydropyrimidine-5-carbonitrile] | 2.50 ± 0.20 | 25 fold and 25.00 fold | 590 ± 5 | 9 fold and 9.00 fold | 21 ± 1 | 90 | 57 ± 3 | 1.4 | > 8.0 | > 8.0 | > 10.0 | > 9.0 | > 200 |
| COc1ccc(-c2noc(CSc3nc(-c4ccc(OC)cc4)c(C#N)c(=O)[nH]3)n2)cc1 [Compound 10l, 2-(((3-(4-Methoxyphenyl)-1,2,4-oxadiazol-5-yl)methyl)thio)-4-(4-methoxyphenyl)-6-oxo-1,6-dihydropyrimidine-5-carbonitrile] | 2.00 ± 0.10 | 20 fold and 20.00 fold | 530 ± 4 | 8 fold and 8.00 fold | 26 ± 1 | 91 | 61 ± 4 | 1.3 | > 7.0 | > 7.0 | > 9.0 | > 7.0 | > 200 |
